# Laboratory results: US20060275217A1, “Chemical exchange saturation transfer contrast agents” (priority 2005, published 2006)
# System: blood pool
# Experiment: Mouse CEST MR imaging at 4.7T
# Type: in vivo
# Conditions: mouse sacrificed 1 minute after injection, ~0.6 mmol Eu(II)/kg, saturation at -52 ppm vs +52 ppm
# Method: Data was recorded at 4.7T on Bruker MR imager in a mouse sacrificed 1 minute after injection of Eu-polyLysine CEST (Example 4a) compound in water at a ˜0.6 mmol Eu(II)/kg dose (saturation pulse with a power of ˜25 μT for 2.0 s using 1000 Gauss pulses of 2 ms each).
# Reference tubes contain from left to right: water, compound at 10 mM Eu(III) concentration, compound at 50 mM Eu(III) concentration and, Magnevist at a concentration such that T1˜1s.
substance,measurement,value
"polylysine conjugate with the europium complex of 1,4,7,10-tetra-[N-(carboxymethyl)-carbamoyl-methyl]1,4,7,10-tetraaza-cyclododecane [Example 4a]",contrast in digital difference axial image (control minus CEST image),contrast enhancement in the blood pool
